Test results reported in patent publication US20110281922A1, “AMIDE THIAZOLE DERIVATIVE, PREPARATION METHOD AND USES THEREOF” (TIANJIN INSTITUTE OF PHARMACEUTICAL RESEARCH, priority 2008, published 2011).
Structures can show the parent of a compound that is named as a salt.

Test system: ICR mice
Assay: Glucose tolerance in fasted ICR mice: serum glucose by glucose-oxidase method after intraperitoneal glucose load
Type: in vivo
Conditions: dose 100 mg/kg; for 0.5 h blood sugar: serum glucose 0.5 h after modeling (2 g/kg glucose i.p. 2 h after administration; 1.5 h for diamicron); for 1 h blood sugar: serum glucose 1 h after modeling (2 g/kg glucose i.p. 2 h after administration; 1.5 h for diamicron); for 2 h blood sugar: serum glucose 2 h after modeling (2 g/kg glucose i.p. 2 h after administration; 1.5 h for diamicron); for 3 h blood sugar: serum glucose 3 h after modeling (2 g/kg glucose i.p. 2 h after administration; 1.5 h for diamicron); for 4 h blood sugar: serum glucose 4 h after modeling (2 g/kg glucose i.p. 2 h after administration; 1.5 h for diamicron)
Method: 1% sodium carboxymethyl cellulose is used to formulate the sample to a suspension with the concentration of 5 mg/mL, the administration amount is 0.4 mL/20 g body weight, which is corresponding to 100 mg/kg dosage.
The health ICR mice with 20-24 g of body weight fulfill the primary standard, and the male and female of them are in equal. The animals are fasted for 16 hours, and 2 g/kg of glucose-saline solution is injected intraperitoneally at 2 h after administration (glucose is injected at 1.5 h after administration of diamicron). The blood is regularly collected from the post-glomus venous plexus in mice with capillary at 0.5 h, 1 h, 2 h, 3 h, and 4 h after modeling, centrifuged to separate the blood serum, and the content of serum glucose is measured at each of the time-point by glucose-oxidase method.

Row | SMILES | 0.5 h blood sugar [mg/dL] | 1 h blood sugar [mg/dL] | 2 h blood sugar [mg/dL] | 3 h blood sugar [mg/dL] | 4 h blood sugar [mg/dL]
1 | O=C(CNCc1sccc1Br)Nc1nc(Br)cs1 [Compound I-7, 4-bromo-2-{2-[(3-bromothienyl-2-methyl)amino]acetyl}amino thiazole] | 186.0 ± 67.8 | 130.2 ± 37.7 | 100.9 ± 29.6 | 83.3 ± 91.8 | 72.1 ± 29.7
2 | Cl.O=C(CNCc1occc1[N+](=O)[O-])Nc1nc(Br)cs1 [Compound I-15, 4-bromo-2-{2-[(3-nitrylfuranyl-2-methyl)amino]acetyl}amino thiazole hydrochloride] | 193.6 ± 76.4 | 161.5 ± 42.6 | 91.3 ± 20.0 | 64.1 ± 20.2 | 55.1 ± 14.2
3 | Cc1ccc(S(=O)(=O)NC(=O)NN2CC3CCCC3C2)cc1 (stereo not drawn) [diamicron, reference compound] | 211.0 ± 91.3 | 140.3 ± 74.4 | 103.4 ± 31.7 | 77.2 ± 25.8 | 62.3 ± 22.3
4 | Cl.O=C(CNCc1ccccc1Cl)Nc1nc(Br)cs1 [Compound I-13, 4-bromo-2-{2-[(2-chlorobenzyl)amino]acetyl}amino thiazole hydrochloride] | 195.6 ± 78.1 | 166.5 ± 44.2 | 99.3 ± 20.9 | 68.1 ± 21.5 | 59.2 ± 18.3
5 | O=C(CNCc1ccccc1Cl)Nc1nc(Br)cs1 [Compound I-2, 4-bromo-2-{2-[(2-chlorobenzyl)amino]acetyl}amino thiazole] | 199.2 ± 37.6 | 153.3 ± 62.7 | 93.3 ± 48.7 | 58.2 ± 29.0 | 60.0 ± 18.2
6 | O=C(CNCc1ccccc1)Nc1nccs1 [Compound I-1, 2-{2-[(benzyl)amino]acetyl}amino thiazole] | 266.4 ± 56.9 | 182.3 ± 57.6 | 88.2 ± 17.6 | 60.0 ± 15.6 | 52.3 ± 28.1
7 | Cc1csc(NC(=O)CNCc2cccs2)n1.Cl [Compound I-14, 4-methyl-2-{2-[(thienyl-2-methyl)amino]acetyl}amino thiazole hydrochloride] | 233.2 ± 18.1 | 176.2 ± 25.2 | 95.4 ± 46.9 | 65.3 ± 20.1 | 70.1 ± 15.3
8 | COC(=O)c1csc(NC(=O)CNCc2scc(C)c2Br)n1 [Compound I-8, 2-{2-[(3-bromo-4-methylthienyl-2-methyl)amino]acetyl}amino thiazole-4-methyl formate] | 162.5 ± 20.6 | 102.0 ± 30.5 | 98.7 ± 20.5 | 62.5 ± 15.3 | 50.6 ± 18.9
9 | Cc1csc(NC(=O)CNCc2cccs2)n1 [Compound I-6, 4-methyl-2-{2-[(thienyl-2-methyl)amino]acetyl}amino thiazole] | 240.1 ± 41.1 | 186.8 ± 45.9 | 113.6 ± 30.9 | 76.6 ± 48.4 | 88.0 ± 20.1
